Consider twelve compounds from ChEMBL document CHEMBL3108708, “Discovery of Tertiary Amine and Indole Derivatives as Potent RORγt Inverse Agonists” (ACS Med Chem Lett, 2014).

In assay [1] the target is T1, Nuclear receptor ROR-gamma (Mus musculus, UniProt P51450).
T1 sequence (P51450 whole entry): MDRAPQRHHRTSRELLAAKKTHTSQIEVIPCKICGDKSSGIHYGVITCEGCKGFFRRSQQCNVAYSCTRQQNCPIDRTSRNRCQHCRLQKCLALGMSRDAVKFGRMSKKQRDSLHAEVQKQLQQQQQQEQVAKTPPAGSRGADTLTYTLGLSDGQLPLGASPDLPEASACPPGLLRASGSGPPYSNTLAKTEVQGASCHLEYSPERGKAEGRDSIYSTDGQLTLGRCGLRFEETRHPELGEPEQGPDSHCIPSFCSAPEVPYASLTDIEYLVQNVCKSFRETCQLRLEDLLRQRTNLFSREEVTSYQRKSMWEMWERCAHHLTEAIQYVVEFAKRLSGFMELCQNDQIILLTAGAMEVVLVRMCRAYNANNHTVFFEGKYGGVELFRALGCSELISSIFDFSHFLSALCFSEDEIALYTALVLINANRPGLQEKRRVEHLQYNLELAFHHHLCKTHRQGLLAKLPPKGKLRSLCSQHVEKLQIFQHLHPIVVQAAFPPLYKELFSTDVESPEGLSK
Briefly: Inverse agonist activity at RORgammat in mouse Th17 cells assessed as effect on cell differentiation measured as IL-17 level after 3 days by ELISA. The assay is classed as cell-based.

The target in assay [2] is T2, Nuclear receptor ROR-gamma (Homo sapiens, UniProt P51449).
T2 sequence (P51449 whole entry): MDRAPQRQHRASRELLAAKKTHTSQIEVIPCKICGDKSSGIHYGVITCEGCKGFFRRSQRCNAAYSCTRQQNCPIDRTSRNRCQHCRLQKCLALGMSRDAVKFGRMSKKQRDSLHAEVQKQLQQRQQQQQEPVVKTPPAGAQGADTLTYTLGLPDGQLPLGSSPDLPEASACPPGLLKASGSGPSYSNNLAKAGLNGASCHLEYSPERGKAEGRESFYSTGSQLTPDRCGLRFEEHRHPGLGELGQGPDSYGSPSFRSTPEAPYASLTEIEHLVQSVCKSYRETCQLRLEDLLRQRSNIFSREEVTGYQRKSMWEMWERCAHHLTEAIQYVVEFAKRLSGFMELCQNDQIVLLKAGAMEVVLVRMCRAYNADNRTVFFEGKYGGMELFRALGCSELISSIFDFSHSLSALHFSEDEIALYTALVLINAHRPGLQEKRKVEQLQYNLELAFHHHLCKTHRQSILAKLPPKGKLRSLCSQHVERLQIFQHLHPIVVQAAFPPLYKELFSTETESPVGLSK
Description: Inverse agonist activity at biotinylated human RORgammat LBD expressed in Escherichia coli BL21 assessed as inhibition of SRC1 recruitment after 1 hr by FRET assay in presence of N-(2-chloro-6-fluorobenzyl)-N-((2'-methoxy-[1,1'-biphenyl]-4-yl)methyl)benzenesulfonamide

For assay [3], the target named is T2, Nuclear receptor ROR-gamma. This is another data set of the same source.
Description: Inverse agonist activity at biotinylated human RORgammat expressed in Escherichia coli BL21 assessed as effect on recruitment of SRC1/2 after 1 hr by dual-FRET assay
Assay [4] has as its target T3, Nuclear receptor ROR-gamma (Homo sapiens) (UniProt P51449).
T3 sequence (whole entry): T2 sequence (P51449 whole entry)
Description: Binding affinity to human RORgammat expressed in Escherichia coli BL21 assessed as melting temperature by thermal shift assay

The IC50 is the point on the concentration scale where inhibition reaches its midpoint. With `CCS(=O)(=O)c1ccc(CC(=O)Nc2ccc(NCCc3ccc(C(F)(F)F)cc3)c(Cl)c2)cc1`, the half-inhibitory concentration (IC50) in assay [1] was found to be 1020 nM.

For `CCS(=O)(=O)c1ccc(CC(=O)Nc2ccc(CNCc3ccc(C(F)(F)F)cc3)cc2)cc1`, the concentration for half-maximal inhibition (IC50) in assay [1] was over 10000 nM.

With `CCCN(Cc1ccc(NC(=O)Cc2ccc(S(=O)(=O)CC)cc2)cc1)Cc1ccc(C(F)(F)F)cc1`, the concentration for half-maximal inhibition (IC50) in assay [1] was 320 nM.

As usually defined, the ΔTm is the change in melting temperature against a reference sample. `CCS(=O)(=O)c1ccc(CC(=O)Nc2nc(-c3cc(Cl)ccc3Cl)cs2)cc1`: the IC50 in assay [2] and in assay [3] was 1000 nM throughout. Besides, the ΔTm in assay [4] came to 7.1 °C.

As to `CCCN(CCc1ccc(C(F)(F)F)cc1)c1ccc(NC(=O)Cc2ccc(S(=O)(=O)CC)cc2)cc1`, in assay [1], the IC50 is 733 nM.

In the case of `CCS(=O)(=O)c1ccc(CC(=O)Nc2ccc3c(ccn3CCc3ccc(Cl)c(Cl)c3)c2)cc1`, the concentration for half-maximal inhibition (IC50) in assay [1] turned out to be 40 nM.

The EC50 is the concentration needed to bring the measured effect to its halfway point. A higher EC50 goes with a need for much substance. Compound `CCCN(Cc1ccc(C)cc1)Cc1ccc(NC(=O)Cc2ccc(S(=O)(=O)CC)cc2)cc1` returned a 50% inhibitory concentration (IC50) in assay [2] of over 25000 nM. The 50% effective concentration (EC50) in assay [3] was found to be 25 nM.

Consider `CCS(=O)(=O)c1ccc(CC(=O)Nc2ccc3c(ccn3CCc3ccc(C#N)cc3)c2)cc1`, for which the IC50 in assay [1] worked out at 457 nM.

As for `CCS(=O)(=O)c1ccc(CC(=O)Nc2ccc3c(ccn3CCc3ccc(Cl)cc3)c2)cc1`, in assay [1], the IC50 was determined as 164 nM.

For the compound `CCS(=O)(=O)c1ccc(CC(=O)Nc2ccc3c(ccn3CCc3ccc(C(F)(F)F)cc3)c2)cc1`, the IC50 in assay [1] was 31 nM.

Consider `CCS(=O)(=O)c1ccc(CC(=O)Nc2ccc3c(ccn3CCc3ccc(Cl)cc3Cl)c2)cc1`, for which the IC50 in assay [1] is 9 nM.

Consider `CCS(=O)(=O)c1ccc(CC(=O)Nc2ccc3c(ccn3CCc3ccc(OC(C)C)cc3)c2)cc1`, for which the IC50 in assay [1] came out at 70 nM.
